# According to patent publication US20240383905A1, “FGFR INHIBITORS AND METHODS OF USE THEREOF” (3H PHARMACEUTICALS CO., LTD., priority 2021, published 2024):
# Like-named read-outs stand apart in the source and are kept apart here.
# How the values were obtained:
# [1] = Pharmacokinetics in SD Rat; type: in vivo, Sprague-Dawley (SD) rat; details: Sprague-Dawley, male SD rat, plasma; for clearance: IV 3 mg/kg; for AUC(0-inf) / half-life / Cmax: PO 15 mg/kg (IV used for Clearance); for Cmax: read-out: Cmax
# Protocol: Animal studies were done as approved protocols by the Institutional Animal Care and Use Committee at INVIVO Biotech Co., Ltd.
# Animal information: Sprague-Dawley (SD) rat, SPF, 6-8 weeks, Male, weight 200-250 g, purchased from Beijing Vital River Lab (Beijing, People's Republic of China).
# Formulation: Prepare 1.5 mg/ml and 0.6 mg/ml compound solution in […](20% HPβCD) for PO and IV respectively, dosing immediately after preparation.
# Administration: PO and IV;
# [2] = biological target: T1, FGFR2 (Homo sapiens, UniProt P21802); experiment: FGFR2 Biochemical Caliper Assay (KinEASE-TK kit); details: 0.07 nM FGFR2; compound incubated with protein 10 min, reaction 45 min at RT; read-out: FGFR2 Cliper IC50
# T1 construct: purchased Carna 08-134
# [3] = biological target: T2, FGFR3 (Homo sapiens, UniProt P22607); experiment: FGFR3 Biochemical Caliper Assay (KinEASE-TK kit); details: ratio FGFR3/FGFR2 of the biochemical assay
# T2 construct: purchased Carna 08-135
# Procedure, shortened: (§1)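 KinEASE-TK HTRF readout: enzyme at 0.2 nM (FGFR1, FGFR3) preincubated 10 min at RT with 10-point 3-fold compound dilutions before TK-substrate/ATP start.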
# [4] = biological target: T3, FGFR1 (Homo sapiens, UniProt P11362); experiment: FGFR1 Biochemical Caliper Assay (KinEASE-TK kit); details: ratio FGFR1/FGFR2 of the biochemical assay
# T3 construct: purchased Carna 08-133
# Procedure, shortened: as §1
# [5] = tested on: SNU16 cells; experiment: SNU16 Cancer Cell Line Proliferation Assay (CellTiter-Glo); type: cell-based
# Procedure, shortened: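 SNU16 cells at 5000/well exposed to 9-point 3-fold serial compound dilutions (DMSO control) for 72 h at 37 °C, 5% CO2. Viability read by luminescence; IC50 calculated from dose-response.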
# T2 sequence (P22607 23-806): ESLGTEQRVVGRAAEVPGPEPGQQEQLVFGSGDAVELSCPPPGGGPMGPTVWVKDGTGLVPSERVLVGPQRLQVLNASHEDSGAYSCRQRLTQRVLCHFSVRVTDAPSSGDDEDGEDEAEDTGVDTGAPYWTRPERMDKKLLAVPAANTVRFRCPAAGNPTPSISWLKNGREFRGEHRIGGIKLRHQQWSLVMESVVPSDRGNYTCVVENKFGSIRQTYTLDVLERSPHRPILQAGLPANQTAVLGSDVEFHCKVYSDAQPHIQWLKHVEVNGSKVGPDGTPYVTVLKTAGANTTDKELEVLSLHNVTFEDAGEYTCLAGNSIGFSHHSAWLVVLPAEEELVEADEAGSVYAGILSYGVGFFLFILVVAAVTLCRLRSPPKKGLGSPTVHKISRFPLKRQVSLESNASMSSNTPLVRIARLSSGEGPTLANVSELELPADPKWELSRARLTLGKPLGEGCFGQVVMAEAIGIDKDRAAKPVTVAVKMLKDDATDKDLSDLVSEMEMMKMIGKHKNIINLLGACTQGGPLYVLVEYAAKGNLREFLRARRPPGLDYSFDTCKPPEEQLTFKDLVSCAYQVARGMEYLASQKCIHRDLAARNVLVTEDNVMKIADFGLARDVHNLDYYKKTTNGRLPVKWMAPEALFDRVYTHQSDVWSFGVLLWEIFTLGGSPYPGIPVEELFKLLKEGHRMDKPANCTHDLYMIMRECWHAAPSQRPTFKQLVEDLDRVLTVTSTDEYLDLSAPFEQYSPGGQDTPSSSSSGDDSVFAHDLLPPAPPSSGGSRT
# T1 sequence (P21802 22-821): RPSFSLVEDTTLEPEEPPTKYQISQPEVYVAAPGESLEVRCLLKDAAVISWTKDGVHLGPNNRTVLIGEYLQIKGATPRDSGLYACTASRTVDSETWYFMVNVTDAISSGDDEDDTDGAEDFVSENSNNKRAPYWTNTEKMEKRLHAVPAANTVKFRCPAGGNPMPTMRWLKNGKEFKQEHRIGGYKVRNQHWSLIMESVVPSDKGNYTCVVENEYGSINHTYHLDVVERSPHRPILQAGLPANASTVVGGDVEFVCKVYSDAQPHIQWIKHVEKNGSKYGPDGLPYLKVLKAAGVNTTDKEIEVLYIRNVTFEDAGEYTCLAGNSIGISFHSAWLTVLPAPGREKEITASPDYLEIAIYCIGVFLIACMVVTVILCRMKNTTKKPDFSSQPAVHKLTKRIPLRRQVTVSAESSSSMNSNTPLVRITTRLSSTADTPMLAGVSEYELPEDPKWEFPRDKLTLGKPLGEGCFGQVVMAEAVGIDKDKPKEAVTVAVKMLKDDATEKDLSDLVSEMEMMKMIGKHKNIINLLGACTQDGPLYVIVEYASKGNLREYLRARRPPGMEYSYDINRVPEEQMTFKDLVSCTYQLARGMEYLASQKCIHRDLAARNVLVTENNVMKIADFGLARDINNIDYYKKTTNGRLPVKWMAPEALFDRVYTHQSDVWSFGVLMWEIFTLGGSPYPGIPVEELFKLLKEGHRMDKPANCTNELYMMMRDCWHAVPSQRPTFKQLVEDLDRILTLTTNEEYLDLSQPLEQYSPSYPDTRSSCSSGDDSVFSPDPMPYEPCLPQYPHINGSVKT
# T3 sequence (P11362 22-822): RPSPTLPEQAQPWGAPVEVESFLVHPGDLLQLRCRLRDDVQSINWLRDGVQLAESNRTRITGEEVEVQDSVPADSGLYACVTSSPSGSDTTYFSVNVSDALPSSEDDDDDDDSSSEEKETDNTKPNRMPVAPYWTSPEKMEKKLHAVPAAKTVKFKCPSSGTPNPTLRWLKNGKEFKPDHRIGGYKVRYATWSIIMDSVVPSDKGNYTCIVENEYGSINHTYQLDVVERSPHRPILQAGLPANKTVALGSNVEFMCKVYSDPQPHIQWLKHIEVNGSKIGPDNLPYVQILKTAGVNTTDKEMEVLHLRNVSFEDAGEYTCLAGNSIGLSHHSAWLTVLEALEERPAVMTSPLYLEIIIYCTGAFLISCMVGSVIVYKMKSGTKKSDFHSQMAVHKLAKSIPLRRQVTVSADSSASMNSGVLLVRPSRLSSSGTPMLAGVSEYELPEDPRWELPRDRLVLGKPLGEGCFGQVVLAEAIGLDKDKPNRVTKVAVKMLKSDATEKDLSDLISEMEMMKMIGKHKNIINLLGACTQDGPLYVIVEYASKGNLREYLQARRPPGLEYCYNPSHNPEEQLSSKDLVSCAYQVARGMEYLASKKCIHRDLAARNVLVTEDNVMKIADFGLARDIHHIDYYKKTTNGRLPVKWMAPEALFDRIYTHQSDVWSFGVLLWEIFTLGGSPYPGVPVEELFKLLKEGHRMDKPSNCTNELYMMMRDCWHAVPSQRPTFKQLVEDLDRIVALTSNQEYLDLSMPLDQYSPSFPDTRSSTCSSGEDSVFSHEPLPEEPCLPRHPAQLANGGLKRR
Structure (SMILES),clearance [1] [mL/min/kg],AUC(0-inf) [1] [ng·h/mL],half-life [1] [min],Cmax [1] [ng/mL],IC50 [2] [nM],Selectivity FGFR3/FGFR2 [3],Selectivity FGFR1/FGFR2 [4],"IC50 ([5]; 72 h, read-out: Cell SNU-16 IC50) [nM]","IC50 ([5]; Homo sapiens, SNU-16, 72 h) [nM]"
C=C(F)C(=O)Nc1ccc(-c2[nH]c3c(C#N)cnc(N)c3c2-c2ccc(C(=O)NCC(F)(F)F)c(OC)c2)cc1 [Compound 302],3.4,1510,162,615,–,–,–,–,–
C=C(F)C(=O)Nc1ccc(-c2nn3ncnc(N)c3c2-c2ccc(C(=O)NC3CC(F)(F)C3)c(OC)c2)cc1 [Compound 99],18,3080,84,2360,–,–,–,–,–
"C=C(F)C(=O)Nc1ccc(-c2nn3ncnc(N)c3c2-c2ccc(C(=O)NCC(C)C)cc2)cc1 [Compound 48, 4-(4-amino-6-(4-(2-fluoroacrylamido)phe-nyl)pyrazolo[5,1-f] [1,2,4]triazin-5-yl)-N-isobutylbenzamide]",–,–,–,–,< 5,B (Selectivity of FGFR3/FGFR2 less than 100 but greater than or equal to 25),A+ (Selectivity of FGFR1/FGFR2 greater or equal to 500),≤ 10,–
"C=CC(=O)Nc1ccc(-c2nn3ncnc(N)c3c2-c2ccc(C(=O)NCC(C)C)c(OC)c2)cc1 [Compound 81, 4-(6-(4-acrylamidophenyl)-4-aminopyrazolo[5,1-f] [1,2,4]triazin-5-yl)-N-isobutyl-2-methoxybenzamide]",–,–,–,–,< 5,A+ (Selectivity of FGFR3/FGFR2 greater or equal to 150),A+ (Selectivity of FGFR1/FGFR2 greater or equal to 500),–,≤ 10
C=CC(=O)Nc1ccc(-c2c(-c3ccc(C(=O)NCC(F)(F)F)c(OC)c3)c3c(N)ncc(C#N)c3n2C2CC2)cc1 [Compound 351],–,–,–,–,< 5,B (Selectivity of FGFR3/FGFR2 less than 100 but greater than or equal to 25),A+ (Selectivity of FGFR1/FGFR2 greater or equal to 500),–,≤ 10
"C=CC(=O)Nc1ccc(-c2nn3ncnc(N)c3c2-c2ccc(C(=O)NCC(F)(F)F)c(OC)c2)cc1 [Compound 42, 4-(6-(4-acrylamidophenyl)-4-aminopyrazolo[5,1-f] [1,2,4]triazin-5-yl)-2-methoxy-N-(2,2,2-trifluoroethyl)benzamide]",–,–,–,–,< 5,A (Selectivity of FGFR3/FGFR2 less than 150 but greater than or equal to 100),A (Selectivity of FGFR1/FGFR2 less than 500 but greater than or equal to 300),–,≤ 10
"C=CC(=O)Nc1ccc(-c2nn3ncnc(N)c3c2-c2ccc(C(=O)NCC(F)F)c(OC)c2)cc1 [Compound 196, 4-(6-(4-acrylamidophenyl)-4-aminopyrazolo[5,1-f][1,2,4]triazin-5-yl)-N-(2,2-difluoroethyl)-2-methoxybenzamide]",–,–,–,–,< 5,A+ (Selectivity of FGFR3/FGFR2 greater or equal to 150),A (Selectivity of FGFR1/FGFR2 less than 500 but greater than or equal to 300),–,≤ 10
"C=CC(=O)Nc1ccc(-n2nc3c(=O)[nH]nc(N)c3c2-c2ccc(Oc3nccc(C)n3)c(OC)c2)cc1 [Compound 134, N-(4-(4-amino-3-(3-methoxy-4-((4-methylpyrimidin-2-yl)oxy)phenyl)-7-oxo-6,7-dihydro-2H-pyrazolo[3,4-d]pyridazin-2-yl)phenyl)acrylamide]",–,–,–,–,< 5,A+ (Selectivity of FGFR3/FGFR2 greater or equal to 150),C (Selectivity of FGFR1/FGFR2 less than 200 but greater than or equal to 100),–,> 50
"C=CC(=O)Nc1ccc(-c2c(-c3ccc(C(=O)NCC(F)(F)F)c(OC)c3)c3c(N)ncc(C#N)c3n2C)c(F)c1 [Compound 150, 4-(2-(4-acrylamido-2-fluorophenyl)-4-amino-7-cyano-1-methyl-1H-pyrrolo[3,2-c]pyridin-3-yl)-2-methoxy-N-(2,2,2-trifluoroethyl)benzamide]",–,–,–,–,< 5,B (Selectivity of FGFR3/FGFR2 less than 100 but greater than or equal to 25),A+ (Selectivity of FGFR1/FGFR2 greater or equal to 500),–,≤ 10
"C=CC(=O)Nc1ccc(-c2nn3ncnc(N)c3c2-c2ccc(C(=O)NC3(C)CC3)c(OC)c2)cc1 [Compound 162, 4-(6-(4-acrylamidophenyl)-4-aminopyrazolo[5,1-f] [1,2,4]triazin-5-yl)-2-methoxy-N-(1-methylcyclopropyl)benzamide]",–,–,–,–,< 5,A+ (Selectivity of FGFR3/FGFR2 greater or equal to 150),A+ (Selectivity of FGFR1/FGFR2 greater or equal to 500),–,≤ 10
"C=C(F)C(=O)Nc1ccc(-c2nn3ncnc(N)c3c2-c2ccc(C(=O)NCC(F)(F)F)c(OC)c2)c(OC)c1 [Compound 102, 4-(4-amino-6-(4-(2-fluoroacrylamido)-2-methoxyphenyl)pyrazolo[5,1-f][1,2,4]triazin-5-yl)-2-methoxy-N-(2,2,2-trifluoroethyl)benzamide]",–,–,–,–,> 10,B (Selectivity of FGFR3/FGFR2 less than 100 but greater than or equal to 25),B (Selectivity of FGFR1/FGFR2 less than 300 but greater than or equal to 200),–,≤ 10
"C=C(F)C(=O)Nc1ccc(-c2nn3ncnc(N)c3c2-c2ccc(C(=O)NCC3(F)CC3)c(OC)c2)cc1 [Compound 204, 4-(4-amino-6-(4-(2-fluoroacrylamido)phe-nyl)pyrazolo[5,1-f][1,2,4]triazin-5-yl)-N-((1-fluorocyclopropyl)methyl)-2-methoxybenzamide]",–,–,–,–,< 5,A (Selectivity of FGFR3/FGFR2 less than 150 but greater than or equal to 100),A+ (Selectivity of FGFR1/FGFR2 greater or equal to 500),–,≤ 10
C=C(F)C(=O)Nc1ccc(-c2nn3ncnc(N)c3c2-c2ccc(C(=O)NC3CC(F)(F)C3)c(OC)c2)c(F)c1 [Compound 234],–,–,–,–,< 5,A+ (Selectivity of FGFR3/FGFR2 greater or equal to 150),A+ (Selectivity of FGFR1/FGFR2 greater or equal to 500),–,≤ 10
C=C(F)C(=O)Nc1ccc(-c2nn3ncnc(N)c3c2-c2ccc(C(=O)NCC3CC3)c(OC)c2)cc1 [Compound 163],–,–,–,–,< 5,A+ (Selectivity of FGFR3/FGFR2 greater or equal to 150),A+ (Selectivity of FGFR1/FGFR2 greater or equal to 500),–,≤ 10
"C=C(C)C(=O)Nc1ccc(-c2c(-c3ccc(Oc4cccc(C)n4)cc3)c3c(N)ncc(C#N)c3n2C)c(F)c1 [Compound 468, N-(4-(4-amino-7-cyano-1-methyl-3-(4-((6-methylpyridin-2-yl)oxy)phenyl)-1H-pyrrolo[3,2-c]pyridin-2-yl)-3-fluorophenyl) methacrylamide]",–,–,–,–,> 10,A+ (Selectivity of FGFR3/FGFR2 greater or equal to 150),A+ (Selectivity of FGFR1/FGFR2 greater or equal to 500),–,≤ 10
C=CC(=O)Nc1ccc(-c2c(-c3ccc(C(=O)NC4CC4)c(OC)c3)c3c(N)ncc(C#N)c3n2CC(F)(F)F)cc1 [Compound 342],–,–,–,–,< 5,A+ (Selectivity of FGFR3/FGFR2 greater or equal to 150),B (Selectivity of FGFR1/FGFR2 less than 300 but greater than or equal to 200),–,≤ 10
"C=C(C)C(=O)Nc1ccc(-c2c(-c3ccc(Oc4nccc(C)n4)c(F)c3)c3c(N)ncc(C#N)c3n2C)c(Cl)c1 [Compound 473, N-(4-(4-amino-7-cyano-3-(3-fluoro-4-((4-methylpyrimidin-2-yl)oxy)phenyl)-1-methyl-1H-pyrrolo[3,2-c]pyridin-2-yl)-3-chlorophenyl)methacrylamide]",–,–,–,–,< 5,A+ (Selectivity of FGFR3/FGFR2 greater or equal to 150),A+ (Selectivity of FGFR1/FGFR2 greater or equal to 500),–,≤ 10
"C=CC(=O)Nc1ccc(-c2[nH]c3c(C#N)cnc(N)c3c2-c2ccc(C(=O)NC3CC3)c(OC)c2)cc1 [Compound 23, 4-(2-(4-acrylamidophenyl)-4-amino-7-cyano-1H-pyrrolo[3,2-c]pyridin-3-yl)-N-cyclopropyl-2-methoxybenzamide]",–,–,–,–,< 5,A (Selectivity of FGFR3/FGFR2 less than 150 but greater than or equal to 100),A+ (Selectivity of FGFR1/FGFR2 greater or equal to 500),–,≤ 10
"C=CC(=O)Nc1ccc(-c2nn3ncnc(N)c3c2-c2ccc(C(=O)NCC(F)(F)F)c(OC)c2)cn1 [Compound 90, 4-(6-(6-acrylamidopyridin-3-yl)-4-aminopyrazolo[5,1-f] [1,2,4]triazin-5-yl)-2-methoxy-N-(2,2,2-trifluoroethyl)benzamide]",–,–,–,–,< 5,B (Selectivity of FGFR3/FGFR2 less than 100 but greater than or equal to 25),A (Selectivity of FGFR1/FGFR2 less than 500 but greater than or equal to 300),–,10 to 50
